Data on ten molecules can be found in US4613613A, “γ-butyrolactone derivatives, process for preparing the same and immunomodulating compositions containing the same as active ingredients” (Mitsubishi Yuka Pharmaceutical Co., Ltd., priority 1983, dated 1986).

Molecules are shown by their SMILES.

The test system of one series is adjuvant arthritis. In words: Adjuvant Arthritis Inhibiting Activity (paw volume). The conditions noted are these: measured after 24 days, * p < 0.05 (Ttest). The series is classed as in vivo, rat (F-344 strain male rats). As to the method: F-344 strain male rats of 9 weeks old (Nippon Charles River), each group consisting of 8-10 rats, were employed for assessment of adjuvant arthritis inhibiting activity of the present compounds Arthritis was induced by subsutaneous injection of 100 μl of a 6% paraffin oil suspension of Mycobacterium butyricum into hind paw. The test compound was suspended in a 1% tragacanth solution and then administered orally everyday from the day of adjuvant injection up to the 21st day at a volume of 5 ml/kg. After 24 days from the sensitization, paw volume was measured Oral administration of solely a 1% tragacanth solution was applied for control.

Series [1] is described as follows: Acute Toxicity Test (oral, mortality by 3-days observation). The following applies: mouse, in vivo, ddY male mice. As to the method:
Using ddY strain male mice of 7-8 weeks old, each group consisting of 5 mice, a suspension of the present compound in a 1% tragacanth solution was administered orally. Then, mortality was examined by 3-days observation.

The test system of the next series is living body. The conditions noted are these: background, known immunomodulating agents; cited from earlier work.
[2] abbreviates: 30 mg/Kg oral everyday to 21st day, Controls: 3.48 ± 0.11 (No. 23), 3.62 ± 0.06 (No. 40), 3.58 ± 0.20 (No. 83).
Where [3] appears, read: 300 mg/Kg oral everyday to 21st day, Controls: 3.48 ± 0.11 (No. 23), 3.62 ± 0.06 (No. 40).

`O=C(SC[C@@H]1C(=O)OC[C@H]1c1ccc(Cl)cc1)c1ccc(F)cc1` (relative stereo) [Compound 23]: the Paw volume in the series on adjuvant arthritis (3 mg/Kg oral everyday to 21st day, Control 3.48 ± 0.11) was determined as 2.84 ± 0.25 mL; in the series with adjuvant arthritis (setting [2]), 2.78 ± 0.23 mL; in the series on adjuvant arthritis (setting [3]) it was 3.03 ± 0.25 mL. In series [1], the median lethal dose (LD50) (as a rule, the dose at which mortality reaches 50%) at 72 h is over 4000 mg/kg.

Consider `Cc1ccc(C(=O)SCC2C(=O)OCC2c2ccc(Cl)cc2)cc1` (stereo not drawn) [Compound 1, β-(p-chlorophenyl)-α-(p-methylbenzoylthiomethyl)-γ-butyrolactone], for which the LD50 at 72 h in series [1] was over 4000 mg/kg.

`Cc1ccc(C(=O)SCC2C(=O)OCC2c2ccccc2)cc1` (stereo not shown) [Compound 7] gave a median lethal dose (LD50) at 72 h in series [1] of over 4000 mg/kg.

As for `CC(=O)SCC1C(=O)OCC1c1ccccc1` (stereo not drawn) [Compound 40, α-acetylthiomethyl-β-phenyl-γ-butyrolactone], the Paw volume is 3.18 ± 0.17 mL in the series on adjuvant arthritis (setting [2]) and 3.18 ± 0.18 mL with adjuvant arthritis (setting [3]). In addition, the median lethal dose (LD50) at 72 h in series [1] is over 2000 mg/kg.

As to `O=C(SCC1C(=O)OCC1c1ccc(Cl)cc1)c1ccccc1` (stereo not drawn) [Compound 74, α-benzoylthiomethyl-β-(p-chlorophenyl)-γ-butyrolactone], the LD50 at 72 h in series [1] was over 4000 mg/kg. As to `COc1ccc(C2COC(=O)C2CSC2CCCCC2)cc1` (stereo not drawn) [Compound 83, α-cyclohexylthiomethyl-β-(p-methoxyphenyl)-γ-butyrolactone], the Paw volume with adjuvant arthritis (setting [2]) is 3.00 ± 0.16 mL.

Turning to `O=C1OCC(c2ccccc2)C1CSCc1ccccc1` (stereo not shown) [Compound 84], the LD50 at 72 h in series [1] is over 4000 mg/kg. For the molecule `CC(C)(S)[C@@H](N)C(=O)O` [D-penicillamine], the “toxicity to a living body (in words)” value with living body was “strong toxicity”. For `c1ccc([C@H]2CN3CCSC3=N2)cc1` [Levamisole, levamisole, reference compound], the “toxicity to a living body (in words)” value in the series with living body is on record as “strong toxicity”. Further, the median lethal dose (LD50) at 72 h in series [1] was under 1000 mg/kg. Take `O=C([O-])c1ccccc1Nc1cc(Cl)ccc1C(=O)[O-].[Na+].[Na+]` [N-(2-carboxyphenyl)-4-chloroanthranilic acid disodium salt]: the “toxicity to a living body (in words)” value in the series on living body is reported as “strong toxicity”.
